Values joined by “and” are separate entries in the source; they are usually repeats but may differ in a detail not shown here. Identical values can stand only once. Like-named read-outs stand apart in the source and are kept apart here.
Experiments:
[1] = test system: Giant foxtail (GIFT); assay: whole plant or invertebrate; format: in vivo; conditions: in vivo
[2] = test system: Shattercane (SHCA); format: in vivo
[3] = test system: VELE (velvetleaf); assay: Greenhouse test Procedure I with PPI or POE herbicide and foliar insecticide (Example 5; Table 5); format: in vivo, Abutilon theophrasti
Description: (§1) Containers were filled and compacted with a fumigated silt loam top soil to a depth of about 1.3 cm from the top of the container. A first container was designated as an untreated control, a second container was designated as a herbicide control, and a third container was designated as a herbicide + antidote test container. Each of the containers was seeded with a crop species. A measured amount of herbicide dispersed or dissolved in acetone was applied to a measured quantity of soil. To this same quantity of soil treated with herbicide, there was added a measured amount of antidote dispersed or dissolved in acetone. The quantity of soil treated with the herbicide and antidote was thoroughly mixed to incorporate the herbicide and antidote in the soil uniformly. The seed bed in the third container of soil was covered with the soil treated with the herbicide and antidote and the container was leveled. For each test series, the seed beds of the first and second containers were likewise covered by soil layers. the cover layer of the first container was not treated with herbicide or antidote.
(§2) Insecticide application was made as described in the tests in the examples below. The containers were then placed on a bench in a greenhouse and sub-irrigated as required for the duration of the test.
(§3) Said herbicide and antidote were sequentially pipetted onto cover layers, which were spread over the seed beds and subirrigated as in Procedure I and allowed to grow to a height of about 10 cm over a period of 11 days. Herbicide No. 1 and Insecticide No. 2 were then sequentially sprayed on the plant foliage. Observations were made three (3) weeks after initial treatment, 10 days after foliar treatment).

[4] = test system: velvetleaf (Abutilon theophrasti); assay: Greenhouse test, combination of Procedures II and III (Examples 1, 2; Tables 1, 2); format: in vivo; conditions: for % Injury VELE: 3 weeks; for Percent Injury VELE: 7 weeks
[5] = test system: VELE (velvetleaf); assay: Greenhouse test Procedure II (Example 4; Table 4); format: in vivo, Abutilon theophrasti; conditions: Insecticide 2 3.36 kg/Ha alone; 3 weeks
Description: as §1
(§4) This procedure is the same as Procedure I, but modified in the manner that after incorporation of the chemicals (herbicide, antidote and insecticide), the containers with the covered seedbed were treated with an initial overhead irrigation equivalent to 0.6 cm rainfall, then subsequently sub-irrigated as required on greenhouse benches.
(§5) The procedure used in this test was Procedure No. 2 above. Formulations of herbicide, insecticide and antidote were applied via track sprayer sequentially onto cover layers, incorporated into the soil which was spread over seedbeds, then irrigated from above with 0.6 cm water. Observations were made three (3) weeks after treatment.

[6] = test system: Corn; assay: Greenhouse test Procedure I with PPI or POE herbicide and foliar insecticide (Example 5; Table 5); format: in vivo
Description: as §1, §2, §3

[7] = test system: Corn; conditions: in vivo
[8] = test system: Corn; assay: Greenhouse test, combination of Procedures II and III: insecticide in-furrow or in cover layer, herbicide and antidote incorporated in cover layer (Examples 1-3, 6; Tables 1-3, 6); format: in vivo; conditions: for % Injury Corn / % Corn Injury PN 3320 / % Corn Injury PN 3377: 3 weeks; for Percent Injury Corn: 7 weeks
[9] = test system: Corn
[10] = test system: Corn; assay: Greenhouse test in sterile vs. unsterile soils (chemicals and procedures of Example 6); format: in vivo; conditions: Herbicide No. 1
Description: Other greenhouse tests were conducted involving the same chemicals and procedures used in Example 6, to determine any effects from microbial breakdown relative to interactions between the herbicide and insecticides in sterile vs. unsterile soils. […] This finding comports with reports in the trade that organophosphates are known to suffer microbial breakdown due to soil microbes.

[11] = test system: Corn; assay: Greenhouse test Procedure II: herbicide, insecticide and antidote incorporated in cover layer (Example 4; Table 4); format: in vivo; conditions: Insecticide 2 3.36 kg/Ha alone; 3 weeks
Description: as §1, §4, §5

[12] = test system: Velvetleaf (VELE); format: in vivo, Abutilon theophrasti
[13] = test system: Giant foxtail (GIFT); assay: Multi-crop greenhouse test, soil-applied (Examples 65, 66; Tables 64, 65); format: in vivo; set-up: inhibition: dose or concentration left out as unconfirmed; conditions: Setaria faberi, Biocide No. 1 8.96 Kg/Ha alone
Description: (§6) Tests according to this invention in various crops indicate widespread application of the invention. In Examples 62-66 below are described tests with a variety of herbicides contacted with COUNTER® 15G in the presence and absence of MON-7400 (Antidote No. 12); MON-13900 (No. 1); MON-4660 (No. 16) and flurazole (No. 16). Those tests were conducted according to Procedures IV or V described above and illustrated further in other foregoing examples. Plants used in all tests were, for crops (as abbreviated in parentheses); cotton (COTT); soybean (SOBE); CORN, grain sorghum (GRSO); wheat (WHEA) and RICE, and the weeds giant foxtail (GIFT) and velvetleaf (VELE). The data in the tables below represent averages of two replications.
(§7) In this test the crops and weeds were planted 1.3 cm deep in 13.7 cm X 27.7 cm pans containing Dupo silt loam soil. The test safeners were applied in acetone solution and COUNTER 15G as dry granules to soil cover layers and incorporated by shaking in a bag. Treated cover layers were placed on seeded pans which were transferred to greenhouse benches and subirrigated. Herbicide was applied POE six (6) days after PPI initiation and observations of plant injury made ten (10) days later; results are shown in Table 61. The herbicide used in this example was BEACON (No. 8).
(§8) In another test in the several crops and weeds used in this test series, the herbicidal component was MON-12000 (No. 1); the other components were the same. the procedure used in this test was the same as that described in Example 62, modified to use a light overhead irrigation (about 0.32 cm/day) during days 4-7 of the test. Table 64 […]

[14] = test system: Corn; assay: as above; format: in vivo; set-up: inhibition: dose or concentration left out as unconfirmed; conditions: Zea mays, Biocide No. 1 8.96 Kg/Ha alone
Description: as §6, §7, §8

[15] = test system: RICE; assay: as above; format: in vivo; set-up: inhibition: dose or concentration left out as unconfirmed; conditions: Oryza sativa, Biocide No. 1 8.96 Kg/Ha alone
Description: as §6, §7, §8

[16] = test system: soybean (SOBE); assay: as above; format: in vivo; set-up: inhibition: dose or concentration left out as unconfirmed; conditions: Glycine max, Biocide No. 1 8.96 Kg/Ha alone
Description: as §6, §7, §8

[17] = test system: grain sorghum (GRSO); assay: as above; format: in vivo; set-up: inhibition: dose or concentration left out as unconfirmed; conditions: Sorghum, Biocide No. 1 8.96 Kg/Ha alone
Description: as §6, §7, §8

[18] = test system: wheat (WHEA); assay: as above; format: in vivo; set-up: inhibition: dose or concentration left out as unconfirmed; conditions: Triticum aestivum, Biocide No. 1 8.96 Kg/Ha alone
Description: as §6, §7, §8

[19] = test system: Velvetleaf (VELE); assay: whole plant or invertebrate; format: in vivo, Abutilon theophrasti; conditions: in vivo
[20] = test system: Velvetleaf (VELE); assay: Multi-crop greenhouse test, soil-applied (Examples 65, 66; Tables 64, 65); format: in vivo, Abutilon theophrasti; set-up: inhibition: dose or concentration left out as unconfirmed; conditions: Abutilon theophrasti, Biocide No. 1 8.96 Kg/Ha alone
Description: as §6, §7, §8

[21] = test system: cotton (COTT); assay: Multi-crop greenhouse test, biocide, herbicide and safener applied to soil covers (Examples 65, 66; Tables 64, 65); format: in vivo; set-up: inhibition: dose or concentration left out as unconfirmed; conditions: Gossypium hirsutum, soil, Biocide No. 1 8.96 Kg/Ha alone
Description: as §6, §7
In another test in the several crops and weeds used in this test series, the herbicidal component was MON-12000 (No. 1); the other components were the same. the procedure used in this test was the same as that described in Example 62, modified to use a light overhead irrigation (about 0.32 cm/day) during days 4-7 of the test.
In yet another test in this series, XRD-498 (Herbicide No. 21) was used as the herbicidal component in contact with COUNTER 15G in the presence of the above safeners. The various components of the system (biocide, herbicide and safener) were applied concurrently to soil covers of the seeded plants.

[22] = Table 14: no antidote, Herbicide No. 7 0.84 Kg/Ha POE and/or Biocide No. 2 8.96 Kg/Ha PPI, per label, 13 days after planting
[23] = no antidote, […], 13 days after planting
[24] = Insecticide 2 1.68 Kg/Ha, herbicide cell '-', mode POE (so in the source)
[25] = Ex. 2: Insecticide 2 3.36 kg/Ha alone
[26] = Ex. 6: Insecticide 2 0.23 Kg/305m alone
[27] = Ex. 12: Biocide No. 1 8.96 Kg/Ha PPI alone, 13 days after planting
[28] = no antidote, […], observed 10 days after herbicide application
[29] = Ex. 2: Insecticide 1 0.23 Kg/305m alone
[30] = Insecticide 1 0.23 kg/305m alone
[31] = Insecticide 1 (H2O) (crystals scattered in-furrow) alone
[32] = Ex. 6: Insecticide 1 0.23 Kg/305m alone

## CCOP(=S)(OCC)Oc1nc(Cl)c(Cl)cc1Cl [Biocide No. 2, O,O-Diethyl O-(3,5,6-trichloro-2-pyridyl)phosphorothioate, reference compound]
[1]
  % Inhibition GIFT: 45% and 70%
[2]; [22]
  % Inhibition SHCA: 0%
[2]; in vivo
  % Inhibition SHCA: 30%
[2]; [23]
  % Inhibition SHCA: 25%
[3]; Insecticide 2 1.68 Kg/Ha alone
  % Injury VELE: 0%
[3]; [24]
  % Injury VELE: 60%
[4]; [25]
  % Injury VELE: 3%
[4]; Insecticide 2 3.36 kg/ha alone
  Percent Injury VELE: 0%
[5]
  % Injury VELE: 0%
[6]; Insecticide 2 1.68 Kg/Ha alone
  % Injury Corn: 0%
[6]; [24]
  % Injury Corn: 35%
[7]
  % Inhibition Corn: 0%
[8]; [25]
  % Injury Corn: 8%
[8]; [26]
  % Corn Injury PN 3320: 0%
  % Corn Injury PN 3377: 0%
[8]; Insecticide 2 3.36 kg/ha alone
  Percent Injury Corn: 0%
[9]; [22]
  % Inhibition Corn: 0%
[9]; in vivo
  % Inhibition Corn: 0%
[9]; [23]
  % Inhibition Corn: 0%
[10]
  interactions with herbicide in unsterile vs. sterile soil: did not appear to be reduced
[11]
  % Injury Corn: 0%
[12]; [22]
  % Inhibition VELE: 0%
[12]; in vivo
  % Inhibition VELE: 0%
[12]; [23]
  % Inhibition VELE: 0%

## CCOP(=S)(OCC)SCSC(C)(C)C [Biocide No. 1, S-[[(1,1-dimethyl-ethyl)thio]-methyl]O,O-diethylphosphorodithioate, reference compound]
[1]
  % Inhibition GIFT: 10% and 20%
[2]; [27]
  % Inhibition SHCA: 25%
[2]; [28]
  % Inhibition SHCA: 20%
[4]; [29]
  % Injury VELE: 0%
[4]; [30]
  Percent Injury VELE: 0%
[4]; [31]
  Percent Injury VELE: 0%
[7]
  % Inhibition Corn: 5% and 0%
[13]; Table 64
  inhibition: 30%
[13]; Table 65
  inhibition: 30%
[14]; Table 64
  inhibition: 0%
[14]; Table 65
  inhibition: 0%
[15]; Table 64
  inhibition: 10%
[15]; Table 65
  inhibition: 0%
[16]; Table 64
  inhibition: 0%
[16]; Table 65
  inhibition: 0%
[17]; Table 64
  inhibition: 0%
[17]; Table 65
  inhibition: 0%
[18]; Table 64
  inhibition: 0%
[18]; Table 65
  inhibition: 0%
[8]; [29]
  % Injury Corn: 3%
[8]; [32]
  % Corn Injury PN 3320: 0%
  % Corn Injury PN 3377: 0%
[8]; [30]
  Percent Injury Corn: 0%
[8]; [31]
  Percent Injury Corn: 0%
[9]; [27]
  % Inhibition Corn: 5%
[9]; in vivo
  effect on corn before application of the herbicide: slight early stunting and leaf malformation
[19]
  % Inhibition VELE: 0%
[20]; Table 64
  inhibition: 0%
[20]; Table 65
  inhibition: 0%
[21]; Table 64
  inhibition: 0%
[21]; Table 65
  inhibition: 0%
[10]
  interactions with herbicide in unsterile vs. sterile soil: did not appear to be reduced
[12]; [28]
  % Inhibition VELE: 15%
